Data: PubChem BioAssay (NCI)
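Grown in 96-well plates, cells were treated for 48 hours with each compound at five concentrations. Insufficient inhibition: endpoint recorded as highest concentration tested. GI50 marks 50% less growth. At the TGI there is no net growth.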

Legend:
Experiment in all cases: NCI-60 cell line screen, 48 h
[1] = tested on: U251 CNS
[2] = tested on: HCT-116 colon
[3] = tested on: SK-MEL-2 melanoma
[4] = tested on: A498 renal
[5] = tested on: IGROV1 ovarian
[6] = tested on: HOP-92 NSCLC
[7] = tested on: SF-539 CNS
[8] = tested on: CAKI-1 renal
[9] = tested on: DU-145 prostate
[10] = tested on: T-47D breast

O=c1c2ccccc2[nH]c(=S)n1-c1ccc(Br)cc1
TGI [1]: > 100 µM
TGI [2]: > 100 µM
TGI [3]: > 100 µM
TGI [4]: > 100 µM
TGI [5]: > 100 µM
TGI [6]: 70 µM
TGI [7]: > 100 µM

Cn1c2c(c3ccccc31)CCN(CCCCN1CCc3c(n(C)c4ccccc34)C1=O)C2
TGI [8]: > 100 µM
TGI [1]: > 100 µM
TGI [2]: > 100 µM
TGI [3]: > 100 µM
TGI [4]: > 100 µM
TGI [5]: > 100 µM
TGI [6]: > 100 µM
TGI [7]: > 100 µM

Cc1cc(C)nc(NS(=O)(=O)c2ccc(Nc3c4ccccc4nc4c(C(=O)Nc5ccc(S(=O)(=O)N=C(N)N)cc5)ccc(Cl)c34)cc2)n1
TGI [8]: > 100 µM
TGI [1]: 34.6 µM
TGI [2]: 51.5 µM
TGI [4]: > 100 µM
TGI [7]: 45.6 µM

O=C(Oc1ccc(Cl)cc1Cl)c1ccccc1Nc1ccnc(C(F)(F)F)c1
GI50 [8]: 2100 nM
TGI [8]: 4.14 µM
GI50 [3]: 20.5 µM
TGI [3]: > 100 µM
GI50 [4]: 21.5 µM
TGI [4]: 37.3 µM
GI50 [5]: 17800 nM
TGI [5]: > 100 µM
GI50 [6]: 11600 nM
TGI [6]: 43.4 µM
GI50 [7]: 3770 nM
TGI [7]: 12 µM
GI50 [9]: 15700 nM
TGI [9]: 30.6 µM

O=[N+]([O-])c1ccc(C(c2c[nH]c3ccccc23)c2c[nH]c3ccccc23)cc1
TGI [1]: 45.3 µM
TGI [3]: 20.1 µM
TGI [4]: 30.1 µM
TGI [10]: 7.07 µM
TGI [7]: 30.6 µM
TGI [9]: 20.6 µM

O=C(c1ccccc1)C(c1ccccc1)C1(O)C(=O)Nc2c(Cl)cc(Cl)cc21 (centres undefined)
TGI [8]: 40.1 µM
TGI [1]: 96.6 µM
TGI [3]: 33 µM
TGI [6]: 40 µM

COc1ccc(-c2nc3sc(C)cn3c2/C=C/C(=O)c2cc(OC)c(OC)c(OC)c2)cc1
GI50 [8]: 5150 nM
TGI [8]: > 100 µM
GI50 [1]: 4040 nM
TGI [1]: > 100 µM
GI50 [2]: 3800 nM
TGI [2]: > 100 µM
GI50 [5]: 1650 nM
TGI [5]: 4.33 µM
GI50 [10]: 2420 nM
TGI [10]: 8.94 µM
GI50 [7]: 4280 nM
TGI [7]: > 100 µM
GI50 [9]: 3690 nM
TGI [9]: > 100 µM

Cc1ccc(OCC(=O)N2N=C(c3ccccc3)CC2(O)c2ccccc2)cc1 (centres undefined)
TGI [8]: > 100 µM
TGI [1]: 34.1 µM
TGI [2]: > 100 µM
TGI [3]: > 100 µM
TGI [5]: > 100 µM
TGI [6]: > 100 µM
TGI [7]: > 100 µM

O=C(c1ccccc1)C(C(=O)c1ccccc1)C1(O)C(=O)c2ccccc2C1=O
TGI [1]: > 100 µM
TGI [3]: > 100 µM
TGI [4]: > 100 µM
TGI [5]: > 100 µM
TGI [6]: 64.6 µM
TGI [7]: > 100 µM

O=C1C(=O)N(C(=O)c2ccc(Cl)c(Cl)c2)c2ccccc21
TGI [1]: > 100 µM
TGI [5]: > 100 µM
TGI [7]: > 100 µM

COC1=CC(=O)c2ccccc2C1(CCC=C(C)C)C1=NC(C)(C)CO1 (centres undefined)
TGI [8]: > 100 µM
TGI [1]: > 100 µM
TGI [2]: > 100 µM
TGI [3]: > 100 µM
TGI [5]: > 100 µM
TGI [6]: > 100 µM
TGI [7]: > 100 µM

Cc1ccc(-[n+]2c3cc(N)c(C)cc3nc3cc(C)c(Nc4ccccc4)cc32)cc1
GI50 [8]: 173 nM
TGI [8]: 0.461 µM
GI50 [3]: 0.235 µM
TGI [3]: 0.538 µM
GI50 [4]: 0.119 µM
TGI [4]: 0.438 µM
GI50 [5]: 166 nM
TGI [5]: 1.54 µM
GI50 [6]: 150 nM
TGI [6]: 0.556 µM
GI50 [10]: 88.6 nM
TGI [10]: 1.02 µM
GI50 [9]: 53.4 nM
TGI [9]: 1.08 µM

O=C(O)c1c(-c2cccc3ccccc23)sc(-c2cccc3ccccc23)c1C(=O)O
TGI [1]: > 100 µM
TGI [2]: > 100 µM
TGI [3]: > 100 µM
TGI [5]: > 100 µM
TGI [6]: > 100 µM
TGI [7]: > 100 µM

C=C1C(=O)O[C@H]2[C@H]1CC/C(COC(=O)c1cc3cc(F)ccc3[nH]1)=C\CC[C@@]1(C)O[C@@H]21
GI50 [8]: 1200 nM
TGI [8]: 2.62 µM
GI50 [1]: 1820 nM
TGI [1]: 3.57 µM
GI50 [2]: 1500 nM
TGI [2]: 2.96 µM
GI50 [3]: 1.95 µM
TGI [3]: 4.27 µM
GI50 [4]: 3.35 µM
TGI [4]: 8.96 µM
GI50 [5]: 1440 nM
TGI [5]: 3.14 µM
GI50 [6]: 1380 nM
TGI [6]: 3.21 µM
GI50 [7]: 1550 nM
TGI [7]: 3.19 µM
GI50 [9]: 1670 nM
TGI [9]: 3.19 µM

CC1=C(C(=O)Nc2ccccc2C)C(c2ccccc2)C(C(=O)Nc2ccccc2C)=C(C)N1
TGI [8]: > 100 µM
TGI [1]: > 100 µM
TGI [2]: > 100 µM
TGI [3]: 93 µM
TGI [4]: > 100 µM
TGI [5]: > 100 µM
TGI [6]: 41.2 µM
TGI [7]: > 100 µM

CCOC/N=C(/N)NC#N
TGI [8]: > 100 µM
TGI [1]: > 100 µM
TGI [2]: > 100 µM
TGI [3]: > 100 µM
TGI [4]: > 100 µM
TGI [5]: > 100 µM
TGI [6]: > 100 µM
TGI [7]: > 100 µM

CC[C@H](C)N(CCN)C(=O)c1cc2ccccc2c(-c2ccccc2Cl)n1
TGI [1]: 24.4 µM
TGI [2]: 14.9 µM
TGI [3]: 33.5 µM
TGI [4]: 17.4 µM
TGI [5]: 26.2 µM
TGI [7]: 6.5 µM

Nc1ccn(CCOC(=O)c2ccccc2)c(=O)n1
TGI [8]: > 100 µM
TGI [1]: > 100 µM
TGI [2]: > 100 µM
TGI [3]: > 100 µM
TGI [4]: > 100 µM
TGI [5]: > 100 µM
TGI [6]: > 100 µM
TGI [7]: > 100 µM

COc1ccc2c(c1)/C(=C\c1c(C)nc3sc(C)cn13)C(=O)N2C
GI50 [8]: 1330 nM
TGI [8]: 4.33 µM
GI50 [1]: 3690 nM
TGI [1]: 31.2 µM
GI50 [2]: 6000 nM
TGI [2]: > 100 µM
GI50 [3]: 9.57 µM
TGI [3]: > 100 µM
GI50 [5]: 9740 nM
TGI [5]: > 100 µM
GI50 [6]: 7420 nM
TGI [6]: 37 µM
GI50 [10]: 1780 nM
TGI [10]: 5.35 µM
GI50 [7]: 1910 nM
TGI [7]: 6.63 µM
GI50 [9]: 11000 nM
TGI [9]: > 100 µM

COc1cc2c3c(n(C)c(=O)c2cc1OC)-c1cc2c(cc1/C3=C\CCCCCN)OCO2
GI50 [8]: 1630 nM
TGI [8]: 54.2 µM
GI50 [1]: 1560 nM
TGI [1]: 16.7 µM
GI50 [3]: 31 µM
TGI [3]: > 100 µM
GI50 [4]: 10.6 µM
TGI [4]: 39.4 µM
GI50 [5]: < 10 nM
TGI [5]: 1.34 µM
GI50 [6]: 4030 nM
TGI [6]: 29 µM
GI50 [10]: 5610 nM
TGI [10]: > 55.5 µM
GI50 [7]: 1960 nM
TGI [7]: 14.8 µM
GI50 [9]: 1880 nM
TGI [9]: 23.1 µM

CCc1cccc(C(C)C)c1NC(=O)C(=O)C(Cc1nc2ccccc2[nH]c1=O)C(=O)OC (centres undefined)
TGI [8]: > 100 µM
TGI [1]: > 100 µM
TGI [2]: > 100 µM
TGI [3]: > 100 µM
TGI [4]: > 100 µM
TGI [5]: > 100 µM
TGI [6]: > 100 µM
TGI [7]: > 100 µM

CCC[CH2][Sn-]([CH2]CCC)([CH2]CCC)[O]c1cc(Cl)c(Cl)cc1Cl
GI50 [1]: 179 nM
TGI [1]: 0.35 µM
GI50 [2]: 154 nM
TGI [2]: 0.318 µM
GI50 [3]: 0.377 µM
TGI [3]: 1.86 µM
GI50 [4]: 0.22 µM
TGI [4]: 0.609 µM
GI50 [5]: 162 nM
TGI [5]: 0.379 µM
GI50 [6]: 106 nM
TGI [6]: 0.395 µM
GI50 [10]: 137 nM
TGI [10]: 0.35 µM
GI50 [7]: 267 nM
TGI [7]: 0.437 µM
